Measured values as given in BindingDB's records for doi:10.1021/jm00089a028 (1992).
Residues, ends and D or L forms follow the SMILES beside them.

Biological target: Endothelin receptor type B (Sus scrofa)
Assay: Binding activity against Endothelin B receptor 0f Porcine cerebellum membranes

Row | SMILES | IC50
1 | CC(C)C[C@@H]1NC(=O)[C@@H](C(C)C)NC(=O)[C@H](C)N(C)C(=O)[C@@H](CC(=O)O)NC(=O)[C@@H](Cc2c[nH]c3ccccc23)NC1=O (HELM PEPTIDE1{L.[dW].[dD].[meA].[dV]}$PEPTIDE1,PEPTIDE1,1:R1-5:R2$$$V2.0) | 47 µM
2 | CC[C@H](C)[C@H]1NC(=O)[C@H](C)NC(=O)[C@@H](CCC(=O)O)NC(=O)[C@@H](Cc2c[nH]c3ccccc23)NC(=O)[C@H](CC(C)C)NC1=O (HELM PEPTIDE1{A.[CC[C@H](C)[C@@H](N[*:1])C(=O)[*:2]].L.[dW].[dE]}$PEPTIDE1,PEPTIDE1,1:R1-5:R2$$$V2.0) | > 100 µM
3 | CC(C)C[C@@H]1NC(=O)[C@@H](C(C)C)NC(=O)[C@@H]2CCCN2C(=O)[C@@H](CCC(=O)O)NC(=O)[C@@H](Cc2c[nH]c3ccccc23)NC1=O (HELM PEPTIDE1{L.[dW].[dE].P.[dV]}$PEPTIDE1,PEPTIDE1,1:R1-5:R2$$$V2.0) | > 100 µM

Next, values leading:

Row | IC50 | SMILES
4 | 30 µM | CC(C)C[C@@H]1NC(=O)[C@@H](C(C)C)NC(=O)CN(C)C(=O)[C@@H](CC(=O)O)NC(=O)[C@@H](Cc2c[nH]c3ccccc23)NC1=O (HELM PEPTIDE1{L.[dW].[dD].[Sar].[dV]}$PEPTIDE1,PEPTIDE1,1:R1-5:R2$$$V2.0)
5 | > 100 µM | CC(C)[C@H]1NC(=O)[C@H](C)NC(=O)[C@@H](CC(=O)O)NC(=O)[C@@H](Cc2c[nH]c3ccccc23)NC(=O)[C@@H]2CCCN2C1=O (HELM PEPTIDE1{A.[dV].P.[dW].[dD]}$PEPTIDE1,PEPTIDE1,1:R1-5:R2$$$V2.0)
